# Legend:
# [1] = tested on: PAH rats; assay: Penile erectile function observation in PAH rats; format: in vivo, SD rats
# Experimental: After gavage treatment, penile erection in the animals was observed, wherein the time of penile erection phenomenon after gavage was recorded in each group.
# [2] = tested on: UIRI model mice; assay: Unilateral renal ischemia-reperfusion mouse model (UIRI model) of renal fibrosis; format: in vivo, BALB/c mice; conditions: 5 mg·kg^−1·d^−1 gavage, 10 days
# Excerpt: Fifteen male BALB/c mice were randomly divided into: a Sham group (a sham-operation group) including 5 mice, and a surgical modeling group including 10 mice. Surgical method: mice were anesthetized and incised on the left side of the abdomen to expose the kidney, and the renal pedicle was bluntly dissected. In the sham-operation group, the renal pedicle was only exposed without clamping; in the modeling group, the left kidney renal pedicle was clamped with a non-invasive miniature arterial clamp for 30 min, and the mice were placed on a thermostat plate at 37° C. to maintain a constant body temperature during the clamping period, and the surgical incision was covered with saline-impregnated gauze to prevent dehydration of the renal tissue. The arterial clamp was removed after 30 min, and it was observed that the kidney changed gradually from purple-black to bright red within 1 min, indicating successful blood reperfusion. The kidney was returned to its original position and the wound was sutured. The mice in the modeling group were randomly divided into 2 groups: a UIRI group (a model group) and a treatment group of the potassium salt crystal form B of WYQ (5 mg/kg), 5 mice in each group.
# (§1) The first gavage administration was started 2 hours after the operation.
# (§2) (2) treatment group of the potassium salt crystal form B of WYQ: the potassium salt crystal form B of WYQ was diluted into a 1 mg/ml solution with normal saline and administered by gavage at the dose of 5 mg·kg^−1·d^−1; and
# administered once a day for consecutive 10 days.
# On the 10th after operation, mice were anesthetized in the same way, the right dorsum was incised to expose the right kidney, and the renal pedicle was ligated before removing the right kidney. The mice in the sham-operation group were only stripped of the perirenal membrane without removing the right kidney. On the 11th after operation, all the mice were sacrificed, the abdominal cavity was opened, and the left kidney tissues of the mice were peeled off, caring to maintain the integrity of the kidney. After the kidney is taken out, the kidney is quickly transferred to pre-chilled PBS, and the kidney is cut for different tests. The kidney is divided into four parts with a scalpel, wherein the upper and lower ventral poles of the kidney were put into liquid nitrogen for extraction of protein and mRNA, and detection of changes in the expression amount of fibrosis-related factors proteins and genes. After 2 hours, the kidney tissue was transferred and stored in the refrigerator at −80° C. The dorsal side of the kidney was fixed in 4% paraformaldehyde for making paraffin sections. The morphological changes of the kidney tissue were observed by HE staining and Masson staining, and the changes of the expression of fibrosis marker proteins in the kidney tissues were observed by immunohistochemistry.
# [3] = tested on: IPF rats; assay: Bleomycin-induced idiopathic pulmonary fibrosis (IPF) rats; format: in vivo, SD rats; conditions: 23 days; for Fibrosis area / Fibrosis score (Ashcroft) / Percentage of score (%) (≤3) / Percentage of score (%) (≥4): left lung
# Experimental: The animals were purchased, and modeling was started after 3-7 days of acclimatization. The animals were weighed and anesthetized by inhalation with isoflurane. After the animals were confirmed to be anesthetized, the neck was disinfected, and the skin of the neck was cut. The main trachea was exposed by bluntly dissecting the muscle, a small incision was made between the tracheal rings, into which a PE-20 tube was inserted until the left main bronchus, and bleomycin was injected directly (dose: 3 mg/kg, volume: 1.0 ml/kg). The trachea and skin were sutured. After the surgery, the animals were kept warm at 37° C. under an electric blanket until the animals were fully awake and confirmed to be able to feed and drink freely before returning the animals to their normal feeding cages.
# 50 mg/kg Nintedanib group (BIBF-50 mg/kg): BIBF was prepared into a solution of 10 mg/ml with 0.5% sodium carboxymethyl cellulose and administered by gavage at a dose of 50 mg/kg^−1·d^−1;
# Each group of rats was administered by gavage on the day of modeling, once a day for 23 days in total.
# After 23 days of continuous administration, all animals in each group were euthanized by intraperitoneal injection of pentobarbital sodium anesthetic (100 mg/kg) in accordance with the KCl standard operating procedure for animal euthanasia. Whole-body perfusion was performed by low-temperature PBS, and then fixation was performed by whole-body formalin perfusion. The left lung was taken and perfused with an equal amount of formalin fluid for weighing and subsequent lung pathology-related tests.
# Left lung gross pathological examination: after perfusion with an equal amount of formalin, the wet weight of the left lung after the perfusion was weighed and recorded with a microbalance; the volume of the left lung after perfusion was measured and recorded using a toe volume measuring instrument.
# The whole lung of the left lung was dehydrated according to the KCl pathology standard SOPs, and paraffin blocks were prepared. The whole lung of the left lung was paraffin-sectioned at a thickness of 3-4 μm. HE staining and Masson Trichrome staining were performed according to the KCl pathology standard staining SOPs, and the slice panoramic scanning was carried out by a Hamamatsu NanoZoomer Digital Pathology (S210) slice scanner. The lung lesion area was calculated by Masson Trichrome staining of the sections, and the left lung fibrosis area (%) was the percentage of fibrosis area in the left lung area; 10 randomly selected fields of view of 1 mm^2 in the lesion area were semi-quantitatively scored by the pathologist under double-blind conditions according to the Ashcroft scoring system (as shown in Table 8 and FIG. 40).
# [4] = tested on: UUO model mice; assay: Unilateral ureteral obstruction mouse model (UUO model) of renal fibrosis; format: in vivo, C57BL/6 mice; conditions: 5 mg·kg^−1·d^−1 gavage, 7 days
# Excerpt: Fifteen male C57BL/6 mice were adaptively fed for one week and randomly divided into two groups: a Sham group (a sham-operation group) including 5 mice and a surgical modeling group including 10 mice. Surgical method: the abdominal cavities of the mice in the sham-operation group were opened under anesthesia to free the left ureter without ligation, and then their abdomens were closed and sutured; the left ureters of the mice in the modeling group were ligated under anesthesia. The mice in the modeling group were further randomly divided into two groups: a UUO group (a model group) and a treatment group of the potassium salt crystal form B of WYQ (5 mg/kg), 5 mice in each group.
# as §1, §2
# administered once a day for consecutive 7 days.
# After 7 days of drug administration, all the mice were sacrificed. The abdominal cavity was opened and the left and right kidney tissues were peeled off, caring to maintain the integrity of the kidneys. The kidneys were taken out and quickly transferred to pre-cooled PBS, and the kidneys were cut for different assays. The kidney was divided into four parts with a scalpel, and the dorsal side of the kidney was fixed in 4% paraformaldehyde for making paraffin sections. Morphological changes of kidney tissues were observed by HE staining and Masson staining, and changes of expression of fibrosis marker proteins in kidney tissues were observed by immunohistochemistry.
# [5] = Solid-state stability test (one week, open); format: physicochemical; conditions: for HPLC purity: Purity after placement / Purity after placement/Starting purity / Crystal form change: open, one week; for Crystal form change: XRPD
# Experimental: The solid-state stability of the potassium salt crystal form B prepared in Embodiment 1 was tested, in which 5.22 mg of potassium salt crystal form B samples were weighed and left open at 25° C./60% RH, and 5.19 mg of potassium salt crystal form B samples were weighed and left open at 40° C./75% RH. After one week, all samples were subjected to XRPD characterization (see XRPD parameter settings in Table 1) and HPLC purity test (Agilent 1100) to detect changes in crystal form and purity, wherein HPLC purity test parameters were shown in Table 6. Meanwhile, 4.59 mg of a compound WYQ sample was weighed and left open at 25° C./60% RH, and 5.11 mg of the compound WYQ sample was weighed and left open at 40° C./75% RH. The solid-state stability of these samples were performed under the same conditions for comparative reference.
# [6] = 10 mg/kg, listed as CPD-1, 10 mg/kg
# [7] = 10 mg/kg, listed as potassium salt crystal form B of WYQ
# [8] = both test conditions (25° C./60% RH, 40° C./75% RH)
smiles,measurement,setting,value
CCCCOC(=O)[N-]S(=O)(=O)c1cccc(-c2nc3c(CCC)nn(C)c3c(=O)[nH]2)c1.[K+] [potassium salt crystal form B],rats showing penile erection,"[1]; high-dose 20 mg·kg^−1d^−1, over 40 min after gavage",80%
same,rats showing penile erection,"[1]; low-dose 5 mg·kg^−1d^−1, over 1 h after gavage",50%
same,rats showing penile erection,"[1]; medium-dose 10 mg·kg^−1d^−1, over 1 h after gavage",80%
same,rats showing penile erection,"[1]; mini-dose 2 mg·kg^−1d^−1, over 1 h after gavage",30%
same,Collagen I protein expression in kidney tissue (Western Blot) vs UIRI model,[2],significantly reduced
same,FN1 protein expression in kidney tissue (Western Blot) vs UIRI model,[2],significantly reduced
same,FN1 protein expression level in renal fibrotic lesions (immunohistochemistry),[2],significantly reduced
same,PAI-1 protein expression in kidney tissue (Western Blot) vs UIRI model,[2],significantly reduced
same,α-SMA protein expression in kidney tissue (Western Blot) vs UIRI model,[2],significantly reduced
same,α-SMA protein expression level in renal fibrotic lesions (immunohistochemistry),[2],significantly reduced
same,extracellular matrix deposition in the kidneys,[2]; HE/Masson staining,decreased
same,inflammatory cell infiltration in the kidneys,[2]; HE/Masson staining,significantly reduced
same,Left lung volume,[3]; 2.5 mg/kg gavage once a day,1779.9 ± 105.76 mm^3
same,Left lung weight,[3]; 2.5 mg/kg gavage once a day,1.59 ± 0.10 g
same,alveolar tissue structure in left lung pulmonary fibrosis lesions (HE staining),[3]; 2.5 mg/kg,some of the alveolar structures in the fibrotic lesions were damaged
same,alveolar tissue structure in left lung pulmonary fibrosis lesions (Masson Trichrom staining),[3]; 2.5 mg/kg,some of the alveolar structures in the fibrotic lesions were preserved
same,Left lung volume,[3]; 10 mg/kg gavage once a day,1604.5 ± 153.72 mm^3
same,Left lung weight,[3]; 10 mg/kg gavage once a day,1.47 ± 0.16 g
same,alveolar tissue structure in left lung pulmonary fibrosis lesions (HE staining),[3]; 10 mg/kg,the alveolar structures in the fibrotic lesions were preserved
same,alveolar tissue structure in left lung pulmonary fibrosis lesions (Masson Trichrom staining),[3]; 10 mg/kg,most of the alveolar structures in the fibrotic lesions were preserved
same,smooth muscle proliferation and inflammatory cell infiltration in bronchioles and pulmonary arterioles of left lung fibrosis lesions vs model group,"[3]; 10 mg/kg, HE staining",better effects
same,left lung pulmonary fibrosis lesions and lesion range vs the model group,"[3]; different doses, H&E and Masson Trichrom staining",no significant difference
same,Fibrosis area,[3]; 2.5 mg/kg,51.99 ± 3.21%
same,Fibrosis score (Ashcroft),[3]; 2.5 mg/kg,3.21 ± 0.30
same,Percentage of score (%) (≤3),[3]; 2.5 mg/kg,53.75 ± 9.81%
same,Percentage of score (%) (≥4),[3]; 2.5 mg/kg,46.25 ± 9.81%
same,Fibrosis area,[3]; 10 mg/kg,53.42 ± 4.44%
same,Percentage of score (%) (≤3),[3]; 10 mg/kg,71.25 ± 10.08%
same,Fibrosis score (Ashcroft),[3]; [6],2.69 ± 0.31
same,Percentage of score (%) (≥4),[3]; [6],28.75 ± 10.08%
same,Fibrosis score (Ashcroft),[3]; [7],significantly inhibit
same,Percentage of score (%) (≥4),[3]; [7],significantly reduced
same,FN1 protein expression level in kidney tissue (immunohistochemistry),[4],significantly reduced
same,fibrosis area in the renal fibrosis lesions vs UUO model group,[4],significantly decrease
same,proliferation of renal interstitial collagen fibers,[4],reduced
same,inflammatory cell infiltration in the kidney,[4]; HE staining,significantly reduced
same,HPLC purity: Purity after placement,[5]; 25° C./60% RH,98.62 area %
same,Purity after placement/Starting purity,[5]; 25° C./60% RH,99.9%
same,Crystal form change,[5]; 25° C./60% RH,unchanged
same,HPLC purity: Purity after placement,[5]; 40° C./75% RH,98.51 area %
same,Purity after placement/Starting purity,[5]; 40° C./75% RH,99.8%
same,Crystal form change,[5]; 40° C./75% RH,unchanged
same,change in purity after one week of placement,[5]; [8],no significant change
same,change in the crystal form after one week of placement,[5]; [8],no change

# — patent publication US12441732B2, “Potassium salt crystal form B of phosphodiesterase type 5 inhibitor, and preparation method and use therefor” (Guangzhou Huazhen Pharmaceutical Co., Ltd, priority 2019, dated 2025)
